In brackets after ≈: the same amount, converted by molar mass. Where two headings read alike, the source gives them in different places.
Experiments:
Experiment in all cases: MIC 90, broth micro-dilution, ATCC strains
[1] = system: S. aureus ATCC 29213; assay type: cell-based, Staphylococcus aureus
From the text: (§1) 3.3 Protocol for MIC Determination (ATCC Strains)
(§2) Tested reference compounds. Amikacin sulfate (Cat. No. 01693, Chem-Impex), Gentamicin sulfate (Cat. No. G4918, Sigma Aldrich), Azithromycin (Cat. No. 1046056, USP), Ceftazidime Pentahydrate (Cat. No. 1098130, USP), Ciprofloxacin (Cat. No. 1134313, USP), Meropenem (Cat. No. 1392454, USP), Rifampicin (Cat. No. R0079, TCI), Tobramycin (Cat. No. 1667508, USP), Vancomycin (Cat. No. 1709007 USP).
(§3) Microbial strains. Staphylococcus aureus ATCC 29213, Staphylococcus aureus ATCC BAA-1717, Escherichia coli ATCC BAA-1025, Klebsiella pneumoniae ATCC BAA-1705, Klebsiella pneumoniae ATCC BAA-2524, Pseudomonas aeruginosa ATCC 27853, Pseudomonas aeruginosa ATCC BAA-2108, Acinetobacter baumannii ATCC BAA-1800.
(§4) Culture media and equipment. BBL™ Mueller Hinton Broth (REF 275730, Lot. 7009699, Becton Dickinson), Mueller Hinton Agar 2 (Ref. No. 97580-500G-F, Lot. No. BCBV4646, Sigma), Dulbecco's Modified Eagle's Medium (DMEM) (Cat. No. 41966-029, Gibco), Minimum Essential Medium (MEM) (Cat. No. 42360-024, Gibco), Fetal bovine serum (FBS) (Cat. No. F7524, Sigma), Non-essential amino acids (NEAA) (100×, Cat. No. 11140-035, Gibco), Sodium Pyruvate (100 mM, 100×, Cat. No. 11360-039, Gibco), Staurosporine (Cat. No. B50188, Biotrend), Cellstar 96-well plates U-bottom (Cat. No. 650180, Lot. No. E14123EB, Greiner Bio-one), CellTiter-Glo (Cat. No. G7573, Promega), 96-well plate V-bottom (Cat. No. 651201, Greiner), 96-well clear plate, U-bottom, (Cat. No. 650180, Greiner), 96-well white plate with clear bottom (Cat. No. 655098, Greiner), 96-well deep well plate 1 mL (Cat. No. 278606, Nunc), Sodium Pyruvate (100 mM, 100×, Gibco, Cat #11360-039), Incubator (Binder), Laminar flow (Thermo Scientific), BioPhotometer (Eppendorf); DEN-1B (McFarland Densitometer, Biosan); McFarland standards (polymer microparticle suspension, Biosan).
(§5) Compound preparation. The test compounds and reference antibiotics were prepared according to CLSI guidelines (Clinical and Laboratory Standards Institute (CLSI); Methods for dilution antimicrobial susceptibility tests for bacteria that grow aerobically; approved standard—ninth edition, M07-A9, Vol. 32, No. 2, 2012) as 5 mg/mL stock solutions in DMSO. Out of these DMSO solutions, 43.5 μL was transferred to 1656.5 μL of MH media in a deep well plate. Out of these working solutions 100 μL was transferred to wells in the third column of 96-well plates. Plates were previously filled with 50 μL of MH media in all wells except for the wells in the third column. After compound and antibiotic addition, 50 μL was transferred from the third to the fourth column, then from the fourth to the fifth and so on. In this manner, the compounds and antibiotics were plated in 96-well plate in serial two-fold dilutions giving a final concentration range of 64-0.125 μg/mL.
(§6) Preparation of microorganisms. Designations used for clinical isolates were from the Fidelta strain collection bank. Microorganisms used were all revived from skim milk storage at −70° C. by plating them on MH agar plates. The following day the single colony of each microorganism was again streaked on fresh agar plates. The next day, using the direct colony suspension method, broth solutions that achieve turbidity equivalent to 0.5 McFarland standard for each microorganism were prepared. […] Out of these suspensions, actual inoculums were prepared by diluting them 100× with MH media giving a final microorganism count of 2-8×10^5 CFU/mL. For each strain of microorganisms, 20 mL of these inoculum solutions were prepared. From the second to the twelfth column of 96-well plates, 50 μL of these solutions were transferred per well. To the first column, 50 μL per well of pure growth media was added. In this manner the first column was used as sterility control of media, the second column was used as control of microorganism's growth and the rest of the plate was used for MIC determination. All plates were incubated for 16-24 h at 37° C. […]

[2] = system: P. aeruginosa ATCC 27853; assay type: cell-based, Pseudomonas aeruginosa
From the text: as §1, §2, §3, §4, §5, §6

[3] = system: E. coli ATCC BAA-1025 (= BL 21); assay type: cell-based, Escherichia coli
From the text: as §1, §2, §3, §4, §5, §6

[4] = Staphylococcus aureus, ATCC29213, read-out: MIC 90
[5] = Pseudomonas aeruginosa, ATCC27853, read-out: MIC 90
[6] = Escherichia coli, ATCCBAA1025, read-out: MIC 90

| SMILES | MIC90 [1] [µM] | MIC90 [2] [µM] | MIC90 [3] [µM] | MIC90 [1, 4] [µM] | MIC90 [2, 5] [µM] | MIC90 [3, 6] [µM] |
| --- | --- | --- | --- | --- | --- | --- |
| NCC[C@H](O)C(=O)N[C@@H]1C[C@H](N)[C@@H](O[C@H]2O[C@H](CN)[C@@H](O)[C@@H](O)[C@H]2O)[C@H](O)[C@H]1O[C@H]1O[C@H](CO)[C@@H](O)[C@H](N)[C@H]1O [ABX3002, 3′Epi-KanaA-AHB] | 16 (≈ 9.37 µg/mL) | 32 (≈ 18.7 µg/mL) | 32 (≈ 18.7 µg/mL) | – | – | – |
| N=C(N)NC1[C@@H](O)C(OC2[C@@H](F)[C@H](O[C@H]3OC(CN)[C@@H](O)[C@H](O)C3O)C(N)C[C@H]2NC(=O)[C@@H](O)CCN)O[C@H](CO)[C@H]1O (stereo partly drawn) [ABX3003, 3′epi-KanaA-AHB-F-Gua] | – | – | – | 2 (≈ 1.26 µg/mL) | 8 (≈ 5.04 µg/mL) | 4 (≈ 2.52 µg/mL) |
| NCCC(O)C(=O)NC1CC(N)C(OC2OC(CN)C(O)C(O)C2O)C(F)C1OC1OC(CO)C(O)C(N)C1O (stereo not drawn) [ABX3005, 3′Epi-KanaA-AHB-F] | 4 (≈ 2.35 µg/mL) | 8 (≈ 4.7 µg/mL) | 8 (≈ 4.7 µg/mL) | – | – | – |
| NCC[C@H](O)C(=O)N[C@@H]1CC(N)[C@@H](O[C@H]2OC(CN)[C@@H](O)[C@@H](O)C2N)[C@H](O)C1OC1O[C@H](CO)[C@@H](O)C(N)[C@H]1O (stereo partly drawn) [ABX4002, 3′Epi-KanaB-AHB] | 2 (≈ 1.17 µg/mL) | 4 (≈ 2.34 µg/mL) | 8 (≈ 4.68 µg/mL) | – | – | – |
| NCC[C@H](O)C(=O)N[C@@H]1CC(N)[C@@H](O[C@H]2OC(CN)[C@@H](O)[C@@H](O)C2N)[C@H](F)C1OC1O[C@H](CO)[C@@H](O)C(N)[C@H]1O (stereo partly drawn) [ABX4003, 3′Epi-KanaB-AHB-F] | 4 (≈ 2.35 µg/mL) | 8 (≈ 4.69 µg/mL) | 4 (≈ 2.35 µg/mL) | – | – | – |
| N=C(N)NC1[C@@H](O)C(OC2[C@@H](F)[C@H](O[C@H]3OC(CN)[C@@H](O)[C@H](O)C3N)C(N)C[C@H]2NC(=O)[C@@H](O)CCN)O[C@H](CO)[C@H]1O (stereo partly drawn) [ABX4004, 3′epi-KanaB-AHB-F-Gua] | – | – | – | 2 (≈ 1.26 µg/mL) | 4 (≈ 2.51 µg/mL) | 2 (≈ 1.26 µg/mL) |
| N=C(N)N[C@@H]1[C@@H](O)[C@@H](O[C@@H]2[C@@H](O)[C@H](O[C@H]3O[C@H](CN)[C@@H](O)[C@@H](O)[C@H]3N)[C@@H](N)C[C@H]2NC(=O)[C@@H](O)CCN)O[C@H](CO)[C@H]1O [ABX4005, 3′Epi-KanaB-AHB-Gua] | 2 (≈ 1.25 µg/mL) | 4 (≈ 2.51 µg/mL) | 8 (≈ 5.01 µg/mL) | – | – | – |
| NCC[C@H](O)C(=O)N[C@@H]1CC(N)[C@@H](O[C@H]2OC(CN)[C@@H](O)CC2N)[C@H](O)C1OC1O[C@H](CO)[C@@H](O)C(N)[C@H]1O (stereo partly drawn) [ABX5004, Tobra-AHB] | 1 (≈ 0.569 µg/mL) | 4 (≈ 2.27 µg/mL) | 2 (≈ 1.14 µg/mL) | – | – | – |
| N=C(N)NC1[C@@H](O)C(OC2[C@@H](O)[C@H](O[C@H]3OC(CN)[C@@H](O)CC3N)C(N)C[C@H]2NC(=O)[C@@H](O)CCN)O[C@H](CO)[C@H]1O (stereo partly drawn) [ABX5005, Tobra-AHB-Gua] | 1 (≈ 0.611 µg/mL) | 4 (≈ 2.44 µg/mL) | 2 (≈ 1.22 µg/mL) | – | – | – |
| N=C(N)NC1C(O)[C@@H](CO)OC(OC2C(F)[C@H](O[C@H]3OC(CN)[C@@H](O)CC3N)C(N)C[C@H]2NC(=O)[C@@H](O)CCN)[C@@H]1O (stereo partly drawn) [ABX5006, Tobra-AHB-F-Gua] | – | – | – | 0.5 (≈ 0.306 µg/mL) | 0.25 (≈ 0.153 µg/mL) | 0.5 (≈ 0.306 µg/mL) |
| N=C(NCCN)NC1C(O)[C@@H](CO)OC(OC2C(F)[C@H](O[C@H]3OC(CN)[C@@H](O)CC3N)C(N)C[C@H]2NC(=O)[C@@H](O)CCN)[C@@H]1O (stereo partly drawn) [ABX5020, Tobra-AHB-F-Gua-2-amino-ethyl] | – | – | – | 0.25 (≈ 0.164 µg/mL) | 0.25 (≈ 0.164 µg/mL) | 1 (≈ 0.656 µg/mL) |
| NCC[C@H](O)C(=O)N[C@@H]1CC(N)[C@@H](O[C@H]2OC(CN)[C@@H](O)CC2N)[C@H](F)C1OC1O[C@H](CO)[C@@H](O)C(N)[C@H]1O (stereo partly drawn) [ABX5024, Tobra-AHB-F] | 1 (≈ 0.571 µg/mL) | 2 (≈ 1.14 µg/mL) | 1 (≈ 0.571 µg/mL) | – | – | – |
| N=C(NC[C@@H]1CCCN1)NC1[C@@H](O)C(OC2[C@@H](F)[C@H](O[C@H]3OC(CN)[C@@H](O)CC3N)C(N)C[C@H]2NC(=O)[C@@H](O)CCN)O[C@H](CO)[C@H]1O (stereo partly drawn) [ABX5026, Tobra-AHB-F-Gua (S) pyrrolidine-2-yl-methyl] | – | – | – | 0.5 (≈ 0.348 µg/mL) | 1 (≈ 0.696 µg/mL) | 1 (≈ 0.696 µg/mL) |
| N=C(NCCCN)NC1[C@@H](O)C(OC2[C@@H](F)[C@H](O[C@H]3OC(CN)[C@@H](O)CC3N)C(N)C[C@H]2NC(=O)[C@@H](O)CCN)O[C@H](CO)[C@H]1O (stereo partly drawn) [ABX5030, Tobra-AHB-F-Gua-3-amino-propyl] | – | – | – | 0.5 (≈ 0.335 µg/mL) | 0.5 (≈ 0.335 µg/mL) | 1 (≈ 0.67 µg/mL) |
| NCC[C@H](O)C(=O)N[C@@H]1C[C@H](N)[C@@H](O[C@H]2O[C@H](CN)[C@@H](O)[C@H](O)[C@H]2O)[C@H](O)[C@H]1O[C@H]1O[C@H](CO)[C@@H](O)[C@H](N)[C@H]1O [Amikacin, amikacin, reference compound] | – | – | – | 4 (≈ 2.34 µg/mL) | 1 (≈ 0.586 µg/mL) | 2 (≈ 1.17 µg/mL) |

— patent US20220127297A1, “Novel Antibacterial 3"-Derivatives Of 4,6-Disubstituted 2,5-Dideoxystreptamine Aminoglycoside Antibiotics” (AGILeBiotics B.V., priority 2018, published 2022)
